Assay results from article PMC5653977 (EMBO Molecular Medicine, 2017).
Read-outs that look alike come from different tables or passages of the source.

Experiments:
ERK = test: Western blot of pERK in prefrontal cortex of spironolactone-treated mice; type: in vivo, mouse; details: Nrg1-tg and wt mice, 50 mg/kg s.c. daily for 21 days, prefrontal cortex lysates
Description: (§1) For the generation of lysates, the isolated tissue was immediately placed into cooled (4°C) sucrose buffer (320 mM sucrose, 10 mM Tris–HCl, 1 mM NaHCO3, 1 mM MgCl2, supplemented with 10 mM NaF, 1 mM […], 1 mM ZnCl2, 4.5 mM Na4P20_7 as phosphatase inhibitors, and the complete protease inhibitor cocktail (Roche)), homogenized using an ultra‐turrax (IKA GmbH, Staufen, Germany), sonicated (3 pulses for 10 s), and denatured for 10 min at 70°C in LDS sample buffer.
(§2) Each blot was replicated two times.
(§3) Treatment was continued throughout the behavioral analysis period. To avoid injection‐induced stress prior to behavioral testing, mice were injected in the afternoon, after the entire cohort has completed the behavioral paradigm.

ERBB4 [1] = target: T1, ERBB4 (Homo sapiens, UniProt Q15303); test: Western blot of ERBB4 phosphorylation in T-47D cells; details: 10 ng/ml EGFld, 10 μM compound, 5 min
Nrg1-tg and wt mice [2] = test: Open field test; type: in vivo, mouse; details: 50 mg/kg s.c. daily
Description: (§4) For behavioral testing, age‐matched male mice (8–16 weeks) on C57Bl/6 background that constitutively overexpress the 2xHA‐tagged Nrg1 type III β1a isoform (Nrg1‐tg) under the control of the mouse Thy1.2 promoter (Velanac et al, 2012) and their wild‐type (wt) littermates as controls were used. Animals were group‐housed in the same ventilated sound‐attenuated rooms under a 12‐h light/12‐h dark schedule (lights on at 8:00 am) at an ambient temperature of 21°C with food and water available ad libitum. One week prior to experiments, mice were separated into single cages and habituated to the experimental rooms. To minimize the influence of the circadian rhythm on drug actions, the treatment groups were analyzed at balanced time points during the light phase. […] All animal experiments were conducted in accordance with NIH principles of laboratory animal care and were approved by the Government of Lower Saxony, Germany, in accordance with the German Animal Protection Law.
as §3
Spontaneous locomotor activity was verified in the open‐field test using a Plexiglas box (45 × 45 × 55 cm). The same test arena was modified with a floor insert containing 16 symmetrically allocated holes for the hole board test. During a 10‐min testing session, mouse behavior was monitored by infrared sensors and recorded by the ActiMot software (TSE, Bad Homburg, Germany). Levels of urination (scored in events) and defecation (scored as feci in events) were determined manually during the open‐field test.

[3] = set-up: method as in Wu et al, 2012; details: ref Wu et al, 2012; cited from earlier work
Nrg1-tg and wt mice [4] = test: Tail suspension test; type: in vivo, mouse; details: 50 mg/kg s.c. daily
Description: as §4, §3

AKT = test: Western blot of pAKT in prefrontal cortex of spironolactone-treated mice; type: in vivo, mouse; details: Nrg1-tg and wt mice, 50 mg/kg s.c. daily for 21 days, prefrontal cortex lysates
Description: as §1, §2, §3

[5] = mouse, in vivo
Description: as §3

Nrg1-tg and wt mice [6] = test: Hot plate test; type: in vivo, mouse; details: 50 mg/kg s.c. daily
Description: as §4, §3

[7] = target: EGFR-NTEV-tevS-GV + ERBB2-CTEV (Homo sapiens, UniProt P00533+P04626); test: ERBB dimerization split TEV assay EGFR/ERBB2; type: cell-based; details: 10 ng/ml EGFld
Source text: (§5) Gateway recombination cloning (Life Technologies) was applied for generating plasmids. Each ORF cloned was PCR‐amplified using the Pwo proofreading DNA polymerase (Roche) and BP‐recombined into the pDONR/Zeo plasmid (Life Technologies) to yield an entry vector, which was control‐digested using BsrGI to release the insert, and sequence‐verified. The following human ORFs were cloned using cDNA image clones ordered from Source BioScience: ERBB4 transcript variant JM‐a/CYT‐1 (Accession: BC112199), PIK3R1 (BC094795), GRB2 transcript variant 1 (BC000631), SHC1 transcript variant 2 (BC014158), STAT5A (BC027036), and SRC transcription variant 1 (BC051270). For EGFR, ERBB2, and ERBB3, entry vectors were obtained from the human CCSB kinase collection available from Addgene (Johannessen et al, 2010). Entry vectors were LR‐recombined into split TEV destination vectors [either pcDNA_attR1‐ORF‐attR2‐NTEV‐tevS‐GV‐2xHA_DEST or pTag4C_attR1‐ORF‐attR2‐CTEV‐2xHA_DEST, plasmids were described in detail before (Wehr et al, 2006)] to yield expression vectors, which were control‐digested using BsrGI. The plasmids for Nrg1 type I β1a and rat Nrg1 type III β1a have been described before (Wehr et al, 2006).

EGFR dimers = EGFR dimers (Homo sapiens, UniProt P00533); test: ERBB dimerization split TEV assay EGFR/EGFR; type: cell-based
Source text: as §5

Limk1 = test: Western blot of phospho-Limk1 in prefrontal cortex of spironolactone-treated mice; type: in vivo, mouse; details: Nrg1-tg mice, 50 mg/kg s.c. daily for 21 days, prefrontal cortex lysates
Description: as §1, §2, §3

[8] = set-up: method as in Juruena et al, 2009; details: ref Juruena et al, 2009; cited from earlier work
ERBB4 [9] = target: T1, ERBB4; test: Western blot of ERBB4 phosphorylation in transfected PC12 cells; type: cell-based; details: PC12 cells transfected with ERBB4-NTEV-tevS-GV, 10 ng/ml EGFld, 10 μM, 1 h
Description: After 24 h of expression, cells were treated as indicated and lysed in a 1% Triton‐X lysis buffer (50 mM Tris [pH 7.5], 150 mM NaCl, 1% Triton X‐100, 1 mM EGTA) supplemented with 10 mM NaF, 1 mM […], 1 mM ZnCl2 4.5 mM Na4P20_7, as phosphatase inhibitors, and the complete protease inhibitor cocktail (Roche).
as §2

[10] = target: ERBB2-NTEV-tevS-GV + ERBB3-CTEV (Homo sapiens, UniProt P04626+P21860); test: ERBB dimerization split TEV assay ERBB2/ERBB3; type: cell-based; details: 10 ng/ml EGFld
Source text: as §5

Sequence of EGFR dimers (P00533 25-1210): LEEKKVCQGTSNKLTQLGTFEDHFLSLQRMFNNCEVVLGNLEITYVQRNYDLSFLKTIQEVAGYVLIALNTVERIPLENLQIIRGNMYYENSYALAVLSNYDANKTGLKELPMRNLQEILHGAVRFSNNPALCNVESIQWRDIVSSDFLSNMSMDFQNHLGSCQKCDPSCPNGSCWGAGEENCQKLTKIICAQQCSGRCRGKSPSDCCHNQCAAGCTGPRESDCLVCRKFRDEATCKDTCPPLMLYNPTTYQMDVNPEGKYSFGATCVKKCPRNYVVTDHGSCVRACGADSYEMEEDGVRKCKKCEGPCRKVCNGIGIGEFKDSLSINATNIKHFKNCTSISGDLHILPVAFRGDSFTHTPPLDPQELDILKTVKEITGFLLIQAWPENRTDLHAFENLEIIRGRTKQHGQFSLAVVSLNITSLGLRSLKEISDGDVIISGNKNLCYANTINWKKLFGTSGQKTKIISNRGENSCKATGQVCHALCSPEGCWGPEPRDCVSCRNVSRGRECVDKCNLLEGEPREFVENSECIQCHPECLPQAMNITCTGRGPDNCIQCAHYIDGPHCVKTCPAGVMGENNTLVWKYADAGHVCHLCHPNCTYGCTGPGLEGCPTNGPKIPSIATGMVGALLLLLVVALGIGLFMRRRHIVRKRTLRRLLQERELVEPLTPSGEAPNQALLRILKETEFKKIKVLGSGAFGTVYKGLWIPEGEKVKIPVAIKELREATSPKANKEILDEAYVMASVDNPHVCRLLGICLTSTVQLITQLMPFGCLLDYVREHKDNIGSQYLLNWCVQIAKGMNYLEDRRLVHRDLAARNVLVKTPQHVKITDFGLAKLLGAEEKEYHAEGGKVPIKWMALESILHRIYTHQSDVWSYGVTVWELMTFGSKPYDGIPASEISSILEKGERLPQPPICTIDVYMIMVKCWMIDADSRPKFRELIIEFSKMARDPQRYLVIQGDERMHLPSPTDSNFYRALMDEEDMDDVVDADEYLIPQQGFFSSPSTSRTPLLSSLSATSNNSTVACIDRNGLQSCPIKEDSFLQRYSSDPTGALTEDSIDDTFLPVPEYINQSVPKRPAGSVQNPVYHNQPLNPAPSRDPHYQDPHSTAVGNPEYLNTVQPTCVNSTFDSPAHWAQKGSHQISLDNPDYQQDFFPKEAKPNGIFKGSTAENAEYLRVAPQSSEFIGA
Sequence of EGFR dimers (P00533 25-1210): as above
T1 sequence (Q15303 26-1308): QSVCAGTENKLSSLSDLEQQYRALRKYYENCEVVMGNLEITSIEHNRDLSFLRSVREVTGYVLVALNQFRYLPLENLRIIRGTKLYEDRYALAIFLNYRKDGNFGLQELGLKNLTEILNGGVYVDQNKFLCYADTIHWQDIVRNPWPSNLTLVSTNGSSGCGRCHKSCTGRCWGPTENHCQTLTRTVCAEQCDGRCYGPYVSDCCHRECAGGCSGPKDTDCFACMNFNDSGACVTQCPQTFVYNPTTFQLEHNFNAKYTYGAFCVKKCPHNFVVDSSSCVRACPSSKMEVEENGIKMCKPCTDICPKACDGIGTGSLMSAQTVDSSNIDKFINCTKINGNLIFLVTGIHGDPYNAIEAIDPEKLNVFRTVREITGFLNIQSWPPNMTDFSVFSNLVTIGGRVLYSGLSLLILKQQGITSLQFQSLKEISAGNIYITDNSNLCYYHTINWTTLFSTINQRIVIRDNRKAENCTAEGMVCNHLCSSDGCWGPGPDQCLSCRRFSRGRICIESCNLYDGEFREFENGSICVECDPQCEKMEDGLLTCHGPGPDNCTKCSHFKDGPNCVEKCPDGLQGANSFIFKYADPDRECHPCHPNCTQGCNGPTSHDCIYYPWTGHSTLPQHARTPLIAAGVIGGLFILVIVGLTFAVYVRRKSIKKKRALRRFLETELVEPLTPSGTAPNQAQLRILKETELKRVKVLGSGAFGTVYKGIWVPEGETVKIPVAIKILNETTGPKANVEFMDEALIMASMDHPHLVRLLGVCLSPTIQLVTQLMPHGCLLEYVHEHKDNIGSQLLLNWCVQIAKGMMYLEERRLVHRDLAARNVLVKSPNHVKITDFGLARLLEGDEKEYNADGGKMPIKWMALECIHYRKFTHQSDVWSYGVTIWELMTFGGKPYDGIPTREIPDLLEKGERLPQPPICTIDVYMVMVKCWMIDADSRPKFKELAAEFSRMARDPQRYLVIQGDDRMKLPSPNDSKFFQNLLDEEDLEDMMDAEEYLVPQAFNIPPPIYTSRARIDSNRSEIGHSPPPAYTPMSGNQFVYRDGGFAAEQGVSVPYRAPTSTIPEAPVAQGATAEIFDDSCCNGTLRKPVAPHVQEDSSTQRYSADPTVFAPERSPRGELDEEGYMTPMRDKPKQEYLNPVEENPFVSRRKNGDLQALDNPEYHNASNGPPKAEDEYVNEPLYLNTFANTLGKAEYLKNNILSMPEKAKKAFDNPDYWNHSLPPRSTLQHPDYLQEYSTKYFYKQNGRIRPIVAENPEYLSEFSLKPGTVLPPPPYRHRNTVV

With `CC(=O)S[C@@H]1CC2=CC(=O)CC[C@]2(C)[C@H]2CC[C@@]3(C)[C@@H](CC[C@@]34CCC(=O)O4)[C@H]12` [Spironolactone] the “pERK (downstream signaling)” value (ERK) was “neither modulated by Nrg1 overexpression, nor by spironolactone treatment”, the “ERBB4 phosphorylation at Tyr1056 and Tyr1284” value (ERBB4 [1]) was “reduced phosphorylation to intermediate levels” and the “defecation in the open-field test” value (Nrg1-tg and wt mice [2]) was “no effect of treatment observed”. The “time in the center of the open-field arena” value (Nrg1-tg and wt mice [2]) was “did not influence this parameter”, the “urination in the open-field test” value (Nrg1-tg and wt mice [2]) was “without effect of treatment” and the “locomotor hyperactivity (distance in the open-field arena)” value (Nrg1-tg and wt mice [2]; Nrg1-tg mice) was “reverted”. For the same compound, the “motivation and curiosity in mice” value [3] was “increase motivation and curiosity”, the “time active in the tail suspension test (genotype effect)” value (Nrg1-tg and wt mice [4]) was “independent of treatment” and the “pAKT (downstream signaling)” value (AKT) was “neither modulated by Nrg1 overexpression, nor by spironolactone treatment”. The “side effect in treated mice” value [5] was “no major side effect”, the “pain sensitivity (latency to the first reaction, hot plate 52°C)” value (Nrg1-tg and wt mice [6]) was “significantly decreased levels of pain sensitivity” and the IC50 [7] was 4.66 µM. The IC50 (EGFR dimers; 100 ng/ml EGF as stimulus, read-out: IC50, EGFR dimers, stimulus EGF) was 1.74 µM, the IC50 (EGFR dimers; PC12 cells, 10 ng/ml EGFld, read-out: IC50, EGFR-NTEV-tevS-GV + EGFR-CTEV) was 8.5 µM and the phospho-Limk1 levels (Limk1) was “markedly upregulated”. For the same compound, the “anxiety in a small group of patients suffering from bipolar disorder” value [8] was “partially improved”, the “ERBB4 phosphorylation levels at Tyr1056” value (ERBB4 [9]) was “reduces but not abolishes the phosphorylation levels” and the IC50 [10] was 9.23 µM.
